Structures are written as SMILES. pIC50, pKi: −log10 of the molar value.

The results in this text go back to patent publication US7960392B2, “Nitrogen-containing heterocyclic compounds” (Asahi Kasei Pharma Corporation, priority 2008, dated 2011).

For test [1], the target named is T1, human EP1 receptor (Homo sapiens, UniProt P34995).
T1 construct: expressed in transfected cells
T1 sequence (P34995 1-402): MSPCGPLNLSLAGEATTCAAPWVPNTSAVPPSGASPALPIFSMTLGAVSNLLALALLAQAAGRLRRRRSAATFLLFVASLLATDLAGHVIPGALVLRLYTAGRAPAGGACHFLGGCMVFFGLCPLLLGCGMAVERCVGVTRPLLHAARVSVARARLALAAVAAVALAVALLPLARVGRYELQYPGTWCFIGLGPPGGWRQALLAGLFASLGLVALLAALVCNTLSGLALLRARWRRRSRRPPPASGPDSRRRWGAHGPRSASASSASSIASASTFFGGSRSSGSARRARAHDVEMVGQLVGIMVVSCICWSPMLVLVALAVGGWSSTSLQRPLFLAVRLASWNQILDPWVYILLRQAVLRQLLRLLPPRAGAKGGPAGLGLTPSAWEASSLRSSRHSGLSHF
The experiment in a line: Antagonist activity (SRE-Luciferase reporter activity) using cells expressing human EP1 receptor. Type of test: cell-based. The following applies: HEK293 cells stably expressing human EP1 receptor with SRE-Luciferase reporter; PGE2 final concentration 10 nM; 37° C. for 6 hours; read-out: IC50 value, antagonist activity measurement test using the cells expressing human EP1 receptor. As to the method:
(§1) Measurement of an Antagonist Activity by Using Cells Expressing Human EP1 Receptor
In order to investigate the EP1 receptor antagonist activity of the compounds of the present invention, a reporter activity was measured by using HEK293 cells in which human EP1 receptor has been stably expressed.
As a result of searching Refseq Database for prostaglandin E receptor, genetic information of human EP1 (NM_000955) receptor was obtained. Based on this sequence information, human EP1 receptor gene was cloned by PCR using human cDNA as a template and by other general method to give human EP1 receptor. Then, HEK293 in which the receptor is stably expressed was established, together with a reporter gene (SRE-Luciferase) in which serum responsible element (SRE) is added at the upstream region of firefly luciferase gene. The resulting cells were added to a 96 well plate (5×10^4 cells/well) and cultured for one day. To the plate, PGE2 (200 nM, final concentration 10 nM) and the test compound (in an amount of 1/20, 20× of the final concentration) were added to initiate the reaction. After allowing the reaction to proceed at 37° C. for 6 hours, the medium was aspirated off, added with a luminescent agent and the reporter activity was measured.

Test [2] concerns the target T1, human EP1 receptor. In words: Antagonist activity (intracellular Ca2+ assay) using cells expressing human EP1 receptor. The following applies: HEK293 cells stably expressing human EP1 receptor; inhibition of increase in intracellular Ca2+ concentration by PGE2 (10 nM); Fura 2-AM. Format: cell-based. The protocol:
as §1
In order to investigate the EP1 receptor antagonist activity of the compounds of the present invention, intracellular Ca^2+ was measured by using HEK293 cells in which human EP1 receptor has been stably expressed.
Cells expressing human EP1 receptor were suspended in an assay buffer to the concentration of 5×10^6 cells/ml, added with Puronic F-127 (final concentration 0.2%), and Fura 2-AM (final concentration 5 uM), followed by incubation at 37° C. for 30 minutes. After washing twice with the assay buffer, the cells were again suspended in the assay buffer to 1×10^6 cells/60 ul, and then transferred to a 96 well UV plate (1×10^6 cells/60 ul/well). Thereafter, by using a fluorescent chemical screening system (FDSS4000, Hamamatsu Photonics K.K.), intracellular Ca^2+ concentration was measured after adding 20 ul of each of the test compounds and PGE2 (5× of the final concentration for both). Ca^2+ concentration was measured by determining fluorescence intensity after irradiation with two excitation wavelengths, i.e., 340 and 380 nm.
Furthermore, EP1 antagonist activity was calculated as a ratio (%) of inhibiting increase in intracellular Ca^2+ concentration by PGE2 (10 nM).
Assay buffer: 20 mM HEPES/KOH (pH 7.4), 115 mM NaCl, 5.4 mM KCl, 0.8 mM MgCl2, 0.8 mM CaCl2, 13.8 mM D-glucose, 0.1% BSA

The target in test [3] is T1, human EP1 receptor. In words: Receptor binding test ([3H]PGE2 binding inhibition) using cells expressing human EP1 receptor. As to conditions: membrane fraction of HEK293 cells stably expressing human EP1 receptor; [3H]PGE2 1 nM; 30° C. for 90 minutes; Ki=IC50/(1+[C]/Kd). As to the method:
Receptor Binding Test Using Cells Expressing Human EP1 Receptor
Inhibitory activity of the test compounds on binding of [^3H]PGE2 in HEK293 cells stably expressing human EP1 receptor was measured.
HEK293 cells which stably express human EP1 receptor were established by using the gene for human EP1 receptor, and then a membrane fraction was prepared therefrom. Thus-prepared membrane fraction was incubated at 30° C. for 90 minutes with a reaction solution (200 μL/well) which includes the test compound and [^3H]PGE2. Upon the completion of the reaction, the reaction solution was aspirated off under reduced pressure, and the [^3H]PGE2 bound to the membrane fraction was trapped by using Unifilter Plateg F/C (manufactured by Packard) and the bound radioactivity was counted with a liquid scintillator.
Kd value was obtained from a Scatchard plot. Non-specific binding was obtained from the binding in the presence of an excess amount (10 μM) of non-labeled PGE2. For the measurement of an inhibitory activity of the test compound on [^3H]PGE2 binding, [^3H]PGE2 (1 nM) and various concentrations of the test compound were added. Meanwhile, for all of the reactions, the buffer as described below was used.
Buffer;10 mM MES/NaOH (pH 6.0), 10 mM MgCl2, 1 mM EDTA, 0.1% BSA
Dissociation constant of the compounds, i.e., Ki, was obtained according to the following equation. […]

In the next test the test system is male SD rat. In words: Micturition interval prolongation in an awaken rat-II. As to conditions: cystitis induced by 0.3% acetic acid, intravenous administration, 60 minutes post- vs 30 minutes pre-administration. Type of test: in vivo. The text has this: Micturition Interval Prolongation in an Awaken Rat-II As a test animal, a male SD rat (Charles River Corporation, Japan) was used. The rat was anesthetized by isofluran inhalation (nitrous oxide:oxygen=7:3), and being laid on its stomach, it remained anesthetized by 2% isofluran inhalation. Then, an incision was made at the center region of the abdomen, and the bladder was exposed. A small incision was made to the vertex region of the bladder, and a polyethylene tube (PE-50: Becton Dickinson) was inserted to the bladder and fixed. One end of a cannula was subcutaneously directed to the backside of the animal, and after fixing the cannula to the abdomen wall, the incision was sealed. The cannula directed to the backside was connected to a seibel and the middle region was protected with a stainless spring. […] Then, through one end of the tube that had been inserted to the bladder, physiological saline warmed to 37° C. was injected at the rate of 3.0 mL/hr using a three-way stop cock, while the other end was connected to a pressure transducer and cystometrogram was recorded continuously with pressure amplification. The discharged urine was collected in a vessel placed on a digital balance and change in the urine weight was measured at the same time. […]

The test system of another test is female SD rat. The experiment in a line: Micturition interval prolongation in an anesthetized rat-II. Type of test: in vivo. The following applies: urethane-anesthetized female SD rat; 0.2% acetic acid in physiological saline infused to the bladder; administered to the left femoral vein. As to the method:
Micturition Interval Prolongation in an Anesthetized Rat-II
Activity of prolonging micturition interval in an anesthetized rat was determined with reference to the method established by Maggi, et al. (Eur. J. Pharmacol. 145, p. 105-112 (1988)). Specifically, a female SD rat was anesthetized with urethane and fixed in a flat position, and a catheter was inserted through an external urethral opening. Using a three-way stop cock, it was connected to a pressure transducer and a syringe pump. While infusing physiological saline including 0.2% acetic acid to the bladder at constant rate, cystometrogram was recorded. After confirming stabilized micturition interval, micturition threshold pressure and maximal voiding pressure, a solvent or the compound to be tested was administered to the left femoral vein and an activity of prolonging micturition interval was determined as an efficacy of the drug compound. Each group included five animals.

As for `O=C(O)c1csc(-n2nc(-c3ccccc3)c(F)c2-c2ccccc2)n1` [Exp. 36], the pIC50 on human EP1 receptor [1] is no less than 7.00; against human EP1 receptor [2] it was 6.00 to 6.52.
For the compound `O=C(O)c1csc(-n2nc(-c3ccccc3)c3oc4ccccc4c32)n1` [Exp. 117], the pIC50 on human EP1 receptor [1] is no less than 7.00.
With `Nc1c(-c2ccccc2)nn(-c2nc(C(=O)O)cs2)c1-c1ccccc1` [Exp. 35], the pIC50 on human EP1 receptor [1] is no less than 7.00. Further, the pKi at human EP1 receptor [3] was no less than 6.52. Further, in the test on male SD rat, the micturition volume entry was “increase in micturition volume” and the “prolongation in micturition interval” value was “at least 30%”. Further, the pIC50 on human EP1 receptor [2] is no less than 6.52.
For `O=C(O)c1csc(-n2nc(-c3ccccc3)c(Br)c2-c2ccccc2)n1` [Exp. 38], the pIC50 on human EP1 receptor [1] is no less than 7.00; against human EP1 receptor [2], no less than 6.52.
Regarding `Cc1c(-c2ccccc2)nn(Cc2nc(C(=O)O)cs2)c1-c1ccccc1` [Exp. 14, 2-{(4-Methyl-3,5-diphenyl-1H-pyrazol-1-yl)methyl}thiazole-4-carboxylic acid], the pIC50 at human EP1 receptor [1] was 6.00 to 6.52.
In the case of `O=C(O)c1csc(-n2nc(-c3ccccc3)c(Cl)c2-c2ccccc2)n1` [Exp. 37], the pIC50 is no less than 7.00 at human EP1 receptor [1] and 6.00 to 6.52 against human EP1 receptor [2].
As to `Cc1c(-c2ccccc2)nn(/C=C\c2nc(C(=O)O)cs2)c1-c1ccccc1` [Exp. 127], the pIC50 on human EP1 receptor [1] was 6.00 to 6.52.
As to `O=C(O)c1csc(-n2nc3c(c2-c2ccccc2)CCc2ccccc2-3)n1` [Exp. 116], the pIC50 is no less than 7.00 on human EP1 receptor [1] and no less than 6.52 against human EP1 receptor [2].
Consider `Cc1c(-c2ccccc2)nn(-c2nc(C(=O)O)cs2)c1C1=CCCCO1` [Exp. 111], for which the figures for the pIC50 on human EP1 receptor [1] and at human EP1 receptor [2] were no less than 7.00 and no less than 6.52, respectively.
`Cc1c(-c2ccccc2)nn(-c2nc(C(=O)O)cs2)c1-c1cc(F)cc(F)c1` [Exp. 80]: at human EP1 receptor [1], the pIC50 was no less than 7.00.
The same measure, in the same setting: next, `Cc1c(-c2ccccc2)nn(-c2nc(C(=O)O)cs2)c1-c1cccc(O)c1` [Exp. 48]: 6.52 to 7.00; `Cc1c(-c2ccccc2)nn(-c2nc(C(=O)O)cs2)c1-c1ccsc1` [Exp. 92]: no less than 7.00.
In the case of `Cc1c(-c2ccccc2)nn(-c2nc(C(=O)O)cs2)c1-c1ccoc1` [Exp. 95], the pIC50 was no less than 7.00 on human EP1 receptor [1] and 6.00 to 6.52 against human EP1 receptor [2].
For `Cc1c(-c2ccccc2)nn(-c2nc(C(=O)O)cs2)c1-c1cc(F)ccc1F` [Exp. 88], the pIC50 at human EP1 receptor [1] is 6.52 to 7.00.
Still for that read-out and setting: the figure for `Cc1c(-c2ccccc2)nn(-c2nc(C(=O)O)cs2)c1-c1cccc2cccnc12` [Exp. 105] is no less than 7.00.
Take `O=C(O)c1csc(-n2nc(-c3ccccc3)c3c2-c2ccccc2C3)n1` [Exp. 114]: the pIC50 was no less than 7.00 on human EP1 receptor [1] and no less than 6.52 against human EP1 receptor [2].
Turning to `Cc1c(-c2ccccc2)nn(-c2nc(C(=O)O)cs2)c1-c1ccccc1` [Exp. 30], the pIC50 on human EP1 receptor [1] is no less than 7.00; on human EP1 receptor [2] it was 6.00 to 6.52. The pKi on human EP1 receptor [3] was no less than 6.52. In the test on female SD rat, the “Micturition interval prolonging activity” value was 25.8%.
In the case of `COc1ccccc1-c1c(C)c(-c2ccccc2)nn1-c1nc(C(=O)O)cs1` [Exp. 42], the pIC50 at human EP1 receptor [1] is 6.00 to 6.52.
On the same count and under the same terms, the figure for `Cc1c(-c2ccccc2)nn(-c2nc(C(=O)O)cs2)c1-c1ccc(F)cc1` [Exp. 54] is no less than 7.00.
For the compound `Cc1c(-c2ccccc2)nn(-c2nc(C(=O)O)cs2)c1-c1ccco1` [Exp. 94], the pIC50 on human EP1 receptor [1] is no less than 7.00; against human EP1 receptor [2], 6.00 to 6.52.
`Cc1c(-c2ccccc2)nn(/C=C/c2nc(C(=O)O)cs2)c1-c1ccccc1` [Exp. 128]: on human EP1 receptor [1], the pIC50 is 6.52 to 7.00.
On to `Cc1c(-c2ccccc2)nn(-c2nc(C(=O)O)cs2)c1-c1cc(F)c(F)c(F)c1` [Exp. 90], for which the pIC50 at human EP1 receptor [1] was 6.52 to 7.00.
Turning to `O=C(O)c1csc(-n2nc(-c3ccccc3O)cc2-c2ccccc2)n1` [Exp. 20], the pIC50 is 6.52 to 7.00 on human EP1 receptor [1] and 5.52 to 6.00 against human EP1 receptor [2].
Consider `Cc1c(-c2ccccc2)nn(-c2nc(C(=O)O)cs2)c1-c1cccc(F)c1` [Exp. 44], for which the pIC50 on human EP1 receptor [1] is no less than 7.00.
For `Cc1c(-c2ccccc2)nn(-c2nc(C(=O)O)cs2)c1-c1cccs1` [Exp. 91], on human EP1 receptor [1], the pIC50 was 6.52 to 7.00.

As a reminder, the pIC50 is the IC50 on a negative log10 scale, so that one unit is a factor of ten. As a reminder, the pKi is the Ki on a negative log10 scale, so that one unit is a factor of ten. High values mean a small Ki, low ones a large Ki.
